Tested on: 422866-222-R5-J1-PDC spheroid viability
Test: Anticancer human tumor 422866-222-R5-J1-PDC patient-derived pancreatic adenocarcinoma cell line growth inhibition [CLK]
Conditions: spheroids with HUVEC and MSC; for IC50: curve of first compound; for viability, T/C: stronger effect = lower value
How it was run: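 Multi-cell-type spheroids combined patient-derived tumor cells with HUVEC endothelial cells and human mesenchymal stem cells. Paired agents were dosed in half-log steps down from about clinical Cmax, or from 10 microM where Cmax was unknown.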

[1] = second compound 0.0316 µM, first compound 0.0316 µM
[2] = second compound 0.0316 µM, first compound 0.1 µM
[3] = second compound 0.0316 µM, first compound 0.316 µM
[4] = second compound 0.0316 µM, first compound 1 µM
[5] = second compound 0.0316 µM, first compound 3.16 µM
[6] = second compound 0.0316 µM, first compound 10 µM
[7] = second compound 0.1 µM, first compound 0.0316 µM
[8] = second compound 0.1 µM, first compound 0.1 µM
[9] = second compound 0.1 µM, first compound 0.316 µM
[10] = second compound 0.1 µM, first compound 1 µM
[11] = second compound 0.1 µM, first compound 3.16 µM
[12] = second compound 0.1 µM, first compound 10 µM
[13] = second compound 0.316 µM, first compound 0.0316 µM
[14] = second compound 0.316 µM, first compound 0.1 µM
[15] = second compound 0.316 µM, first compound 0.316 µM
[16] = second compound 0.316 µM, first compound 1 µM
[17] = second compound 0.316 µM, first compound 3.16 µM
[18] = second compound 0.316 µM, first compound 10 µM
[19] = second compound 1 µM, first compound 0.0316 µM
[20] = second compound 1 µM, first compound 0.1 µM
[21] = second compound 1 µM, first compound 0.316 µM
[22] = second compound 1 µM, first compound 1 µM
[23] = second compound 1 µM, first compound 3.16 µM
[24] = second compound 1 µM, first compound 10 µM
[25] = second compound 3.16 µM, first compound 0.0316 µM
[26] = second compound 3.16 µM, first compound 0.1 µM
[27] = second compound 3.16 µM, first compound 0.316 µM
[28] = second compound 3.16 µM, first compound 1 µM
[29] = second compound 3.16 µM, first compound 3.16 µM
[30] = second compound 3.16 µM, first compound 10 µM
[31] = second compound 10 µM, first compound 0.0316 µM
[32] = second compound 10 µM, first compound 0.1 µM
[33] = second compound 10 µM, first compound 0.316 µM
[34] = second compound 10 µM, first compound 1 µM
[35] = second compound 10 µM, first compound 3.16 µM
[36] = second compound 10 µM, first compound 10 µM
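Note: spheroids exposed to agents for seven days before readout.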

Q: `CC1(C)CCC(CN2CCN(c3ccc(C(=O)NS(=O)(=O)c4ccc(NCC5CCOCC5)c([N+](=O)[O-])c4)c(Oc4cnc5[nH]ccc5c4)c3)CC2)=C(c2ccc(Cl)cc2)C1` + CNC(=O)c1ccc(Nc2nc(OC3CCCC3)c3c(-c4ccc5nc(C)oc5c4)c[nH]c3n2)c(OC)c1 was tested. Which IC50 (second compound 0.0316 µM) did it give?
A: > 10000 nM

Q: What about the IC50 (second compound 0.1 µM) of the same compound?
A: > 10000 nM

Q: What about the IC50 (second compound 0.316 µM) of the same compound?
A: > 10000 nM

Q: And the IC50 (second compound 1 µM)?
A: > 10000 nM

Q: And the IC50 (second compound 3.16 µM)?
A: > 10000 nM

Q: What about the IC50 (second compound 10 µM) of the same compound?
A: > 10000 nM

Q: What about the viability, T/C [1] of the same compound?
A: 115%

Q: And the viability, T/C [2]?
A: 87.5%

Q: And the viability, T/C [3]?
A: 93.9%

Q: What about the viability, T/C [4] of the same compound?
A: 119%

Q: What about the viability, T/C [5] of the same compound?
A: 131%

Q: What about the viability, T/C [6] of the same compound?
A: 93.4%

Q: And the viability, T/C [7]?
A: 114%

Q: And the viability, T/C [8]?
A: 90%

Q: And the viability, T/C [9]?
A: 98.7%

Q: And the viability, T/C [10]?
A: 100%

Q: What about the viability, T/C [11] of the same compound?
A: 114%

Q: What about the viability, T/C [12] of the same compound?
A: 81.3%

Q: What about the viability, T/C [13] of the same compound?
A: 84.6%

Q: And the viability, T/C [14]?
A: 71.9%

Q: What about the viability, T/C [15] of the same compound?
A: 70.1%

Q: What about the viability, T/C [16] of the same compound?
A: 75.7%

Q: And the viability, T/C [17]?
A: 86.6%

Q: What about the viability, T/C [18] of the same compound?
A: 78%

Q: And the viability, T/C [19]?
A: 75.3%

Q: What about the viability, T/C [20] of the same compound?
A: 76.4%

Q: And the viability, T/C [21]?
A: 76%

Q: And the viability, T/C [22]?
A: 70.7%

Q: And the viability, T/C [23]?
A: 66%

Q: What about the viability, T/C [24] of the same compound?
A: 57.1%

Q: What about the viability, T/C [25] of the same compound?
A: 65.2%

Q: And the viability, T/C [26]?
A: 76.6%

Q: What about the viability, T/C [27] of the same compound?
A: 66.4%

Q: And the viability, T/C [28]?
A: 67.7%

Q: And the viability, T/C [29]?
A: 76.8%

Q: And the viability, T/C [30]?
A: 79.5%

Q: What about the viability, T/C [31] of the same compound?
A: 60.3%

Q: And the viability, T/C [32]?
A: 62.4%

Q: What about the viability, T/C [33] of the same compound?
A: 61%

Q: What about the viability, T/C [34] of the same compound?
A: 56.6%

Q: And the viability, T/C [35]?
A: 78.1%

Q: And the viability, T/C [36]?
A: 84.3%

Q: How did the IC50 (second compound 0.0316 µM) turn out when `CC1COCCN1c1cc(C2(S(C)(=N)=O)CC2)nc(-c2ccnc3[nH]ccc23)n1` (stereo unspecified) + CNC(=O)c1ccc(Nc2nc(OC3CCCC3)c3c(-c4ccc5nc(C)oc5c4)c[nH]c3n2)c(OC)c1 was run?
A: 7150 nM

Q: What about the IC50 (second compound 0.1 µM) of the same compound?
A: > 10000 nM

Q: And the IC50 (second compound 0.316 µM)?
A: 2560 nM

Q: What about the IC50 (second compound 1 µM) of the same compound?
A: 1560 nM

Q: And the IC50 (second compound 3.16 µM)?
A: 973 nM

Q: And the IC50 (second compound 10 µM)?
A: 630 nM

Q: What about the viability, T/C [1] of the same compound?
A: 108%

Q: And the viability, T/C [2]?
A: 137%

Q: And the viability, T/C [3]?
A: 104%

Q: What about the viability, T/C [4] of the same compound?
A: 102%

Q: What about the viability, T/C [5] of the same compound?
A: 59.6%

Q: And the viability, T/C [6]?
A: 46.2%

Q: What about the viability, T/C [7] of the same compound?
A: 106%

Q: What about the viability, T/C [8] of the same compound?
A: 98.4%

Q: What about the viability, T/C [9] of the same compound?
A: 88%

Q: What about the viability, T/C [10] of the same compound?
A: 84.6%

Q: And the viability, T/C [11]?
A: 56.9%

Q: What about the viability, T/C [12] of the same compound?
A: 60.6%

Q: What about the viability, T/C [13] of the same compound?
A: 79.8%

Q: And the viability, T/C [14]?
A: 71.6%

Q: And the viability, T/C [15]?
A: 69.3%

Q: And the viability, T/C [16]?
A: 58%

Q: What about the viability, T/C [17] of the same compound?
A: 43.5%

Q: What about the viability, T/C [18] of the same compound?
A: 50.5%

Q: And the viability, T/C [19]?
A: 61.4%

Q: And the viability, T/C [20]?
A: 66.7%

Q: What about the viability, T/C [21] of the same compound?
A: 59.3%

Q: What about the viability, T/C [22] of the same compound?
A: 52.1%

Q: And the viability, T/C [23]?
A: 43.6%

Q: What about the viability, T/C [24] of the same compound?
A: 52.5%

Q: And the viability, T/C [25]?
A: 65.3%

Q: What about the viability, T/C [26] of the same compound?
A: 65.1%

Q: And the viability, T/C [27]?
A: 58.3%

Q: And the viability, T/C [28]?
A: 50%

Q: And the viability, T/C [29]?
A: 44.8%

Q: And the viability, T/C [30]?
A: 53.8%

Q: And the viability, T/C [31]?
A: 64.5%

Q: What about the viability, T/C [32] of the same compound?
A: 69.2%

Q: And the viability, T/C [33]?
A: 58.8%

Q: And the viability, T/C [34]?
A: 42.2%

Q: What about the viability, T/C [35] of the same compound?
A: 39.8%

Q: And the viability, T/C [36]?
A: 50.4%

Q: Which results are given for `NC(=O)C(=Cn1cnc(-c2cc(C(F)(F)F)cc(C(F)(F)F)c2)n1)c1cncnc1` + CNC(=O)c1ccc(Nc2nc(OC3CCCC3)c3c(-c4ccc5nc(C)oc5c4)c[nH]c3n2)c(OC)c1?
A: IC50 (second compound 0.0316 µM): > 3000 nM; IC50 (second compound 0.1 µM): > 3000 nM; IC50 (second compound 0.316 µM): 279 nM; IC50 (second compound 1 µM): 55.4 nM; IC50 (second compound 3.16 µM): 37 nM; IC50 (second compound 10 µM): 55.2 nM; viability, T/C (second compound 0.0316 µM, first compound 0.00949 µM): 98.7%; viability, T/C (second compound 0.0316 µM, first compound 0.03 µM): 107%; viability, T/C (second compound 0.0316 µM, first compound 0.0949 µM): 95.1%; viability, T/C (second compound 0.0316 µM, first compound 0.3 µM): 47.6%; viability, T/C (second compound 0.0316 µM, first compound 0.949 µM): 75.6%; viability, T/C (second compound 0.0316 µM, first compound 3 µM): 76.5%; viability, T/C (second compound 0.1 µM, first compound 0.00949 µM): 98.5%; viability, T/C (second compound 0.1 µM, first compound 0.03 µM): 115%; viability, T/C (second compound 0.1 µM, first compound 0.0949 µM): 66.6%; viability, T/C (second compound 0.1 µM, first compound 0.3 µM): 46.2%; viability, T/C (second compound 0.1 µM, first compound 0.949 µM): 47.5%; viability, T/C (second compound 0.1 µM, first compound 3 µM): 67.5%; viability, T/C (second compound 0.316 µM, first compound 0.00949 µM): 86.1%; viability, T/C (second compound 0.316 µM, first compound 0.03 µM): 87.6%; viability, T/C (second compound 0.316 µM, first compound 0.0949 µM): 56.8%; viability, T/C (second compound 0.316 µM, first compound 0.3 µM): 31.4%; viability, T/C (second compound 0.316 µM, first compound 0.949 µM): 45.4%; viability, T/C (second compound 0.316 µM, first compound 3 µM): 71.8%; viability, T/C (second compound 1 µM, first compound 0.00949 µM): 52%; viability, T/C (second compound 1 µM, first compound 0.03 µM): 69.5%; viability, T/C (second compound 1 µM, first compound 0.0949 µM): 40.6%; viability, T/C (second compound 1 µM, first compound 0.3 µM): 21.7%; viability, T/C (second compound 1 µM, first compound 0.949 µM): 32.3%; viability, T/C (second compound 1 µM, first compound 3 µM): 54.9%; viability, T/C (second compound 3.16 µM, first compound 0.00949 µM): 45.7%; viability, T/C (second compound 3.16 µM, first compound 0.03 µM): 60.2%; viability, T/C (second compound 3.16 µM, first compound 0.0949 µM): 37.3%; viability, T/C (second compound 3.16 µM, first compound 0.3 µM): 21.3%; viability, T/C (second compound 3.16 µM, first compound 0.949 µM): 29.5%; viability, T/C (second compound 3.16 µM, first compound 3 µM): 48.2%; viability, T/C (second compound 10 µM, first compound 0.00949 µM): 55.1%; viability, T/C (second compound 10 µM, first compound 0.03 µM): 65.4%; viability, T/C (second compound 10 µM, first compound 0.0949 µM): 40.9%; viability, T/C (second compound 10 µM, first compound 0.3 µM): 27.9%; viability, T/C (second compound 10 µM, first compound 0.949 µM): 37.2%; viability, T/C (second compound 10 µM, first compound 3 µM): 49.3%

From PubChem BioAssay AID2060603 (Molecular Pharmacology Branch, DTP, NCI, 2025)
